Patent US7054685B2, “Method and apparatus for reducing electroporation-mediated muscle reaction and pain response” (Genetronics, Inc., priority 1999, dated 2006)

Columns and labels:
HEp-2 tumors = assay: Electroporation therapy of HEp-2 tumors implanted subcutaneously in nude mice (intratumoral drug plus bipolar square pulses); format: in vivo, BALB/c A nu/nu mice
Method: BALB/c A nu/nu mice were surgically implanted with HEp-2 tumors in a subcutaneous sac made in the right flank of nude mice. The tumors 34 were allowed to grow and were treated when their average size was about 80 mm^3. The drug, bleomycin, 0.5 units dissolved in 0.15 ml of saline, was injected in each mouse intratumorally using a 30 gauge needle. The drug was injected very slowly at the tumor base and the needle direction rotated (fanning technique) for uniform drug distribution in the tumor 34. The mice in the control were only pulsed D−E+; D=Drug, E=Electric field, +/−denote presence or absence, respectively) while those in the treated group were pulsed and received drug (D+E+). A time lapse of 10+/−1 minute was maintained between the drug injection and the application of electric pulse to allow bleomycin to spread uniformly throughout the tumor 34. The electrical pulses, generated by the prototype bipolar square wave pulse generator, were delivered to the tumor 34 through a 6-needle array (see for example, U.S. Pat. No. 5,702,359 herein incorporated by reference), inserted to the depth of the tumor 34. […] The mice in both the control and pulse-treated groups were monitored every day for mortality and sign of any other disease.
FIG. 16 illustrates the results for the experimental and control groups.

[1] = octanol and water; cited from earlier work

bleomycin
tumor volume (HEp-2 tumors; D+E+ group, versus substantial increase in control group D-E+): decreased
treated mice with complete tumor regression (HEp-2 tumors; D+E+ group, bleomycin 0.5 units in 0.15 ml saline intratumorally, bipolar square pulses via 6-needle array 10+/-1 min later, 65 days following treatment, 7/8 mice): 87.5%
treated mice with partial regression (HEp-2 tumors; D+E+ group, bleomycin 0.5 units intratumorally plus bipolar square pulses, 65 days following treatment, 1/8 mice): 12.5%
tumor reaction to electroporation therapy (HEp-2 tumors; nearly all the mice treated by both the drug (D) and the pulse (E)): severe early edema, and later necrosis of the tumor
extent of partial tumor regression (HEp-2 tumors; the 1/8 D+E+ mouse with partial regression): > 80%
log P [1]: very negative
